Measured values published in US11192849B2, “Compounds, compositions, and methods for modulating ferroptosis and treating excitotoxic disorders” (THE TRUSTEES OF COLUMBIA UNIVERSITY IN THE CITY OF NEW YORK, priority 2013, dated 2021).
Where two headings read alike, the source gives them in different places. Marks after values point to notes of the source that are not given here.

What was measured:
[1] = Metabolic stability in mouse liver microsomes; assay type: in vitro ADME; settings: for half-life at 0.5 μM: mouse, liver microsomes
Description: Test compounds (0.5 μM) were incubated at 37° C. for up to 45 minutes in 50 mM of potassium phosphate buffer (pH 7.4) containing mouse liver microsomal protein (0.5 mg/mL) and an NADPH generating system (0.34 mg/mL β-nicotinamide adenine dinucleotide phosphate (NADP), 1.56 mg/mL glucose-6-phosphate, 1.2 units/mL glucose-6-phosphate dehydrogenase). At 0, 5, 15, 30, and 45 minute intervals, an aliquot was taken and quenched with acetonitrile (ACN) containing internal standard. No-cofactor controls at 45 minutes were prepared. Following completion of the experiment, the samples were analyzed by LC-MS/MS.
The half-life (t1/2) was calculated using the following equation: t1/2=0.693/k Where, k is the elimination rate constant of test compounds obtained by fitting the data to the equation: C=initial×exp(−k×t) Intrinsic clearance (Clint) is calculated as liver clearance from the half-life using the following equation: […]
0.5 mg protein/mL incubation
Ethoxycoumarin was used as a control.

NIH 3T3 cells = experiment: FACS (7AAD / annexin V) of erastin-treated NIH 3T3 cells; assay type: cell-based, murine; settings: 50 μM erastin, 1 μM compound
Description: (§1) For induction of necroptosis, HT-29 cells were stimulated for 24 h at 37° C. with 100 ng/mL TNFα plus 1 μM Smac mimetics plus 25 μM zVAD as indicated (vehicle-treated cells served as control). For induction of ferroptosis, NIH and HT-1080 cells were each stimulated for 24 h at 37° C. with 50 μM erastin as indicated (vehicle-treated cells served as a control). For induction of apoptosis, Jurkat cells were stimulated for 4 h with 100 ng/mL monoclonal anti-Fas (clone 7C11; Immunotech). Anti-Fas-induced apoptosis of Jurkat cells was inhibited by further addition of 25 μM zVAD (vehicle-treated cells served as control).
(§2) Phosphatidylserine exposure to the outer cell membrane of apoptotic cells or at the inner plasma membrane of necrotic cells and incorporation of 7-AAD into necrotic cells were quantified by fluorescence-activated cell sorting (FACS) analysis. The ApoAlert annexin V-FITC antibody and the 7-AAD antibody were purchased from BD Biosciences.

HT1080 cells = experiment: FACS (7AAD / annexin V) of erastin-treated HT1080 cells; assay type: cell-based, human; settings: 50 μM erastin, 1 μM compound
Description: as §1, §2

[2] = test system: freshly isolated murine renal tubules; experiment: Synchronized necrosis of freshly isolated renal tubules (fatty-acid depletion / erastin); assay type: cell-based, mouse; settings: in the presence of fatty acids
Description: Six to 12 mice were used for each isolated tubule preparation, depending on the amount of material needed for particular experiments. For preparation of isolated tubules, mice were anesthetized with ketamine (100 mg/kg i.p.) and xylazine (10 mg/kg i.p.), and the kidneys were immediately removed. Type I collagenase was from Worthington Biochemical. Percoll was purchased from Amersham Biosciences. All other reagents and chemicals, including delipidated BSA, were of the highest grade available from Sigma-Aldrich. […] The cortices were then dissected and minced on an ice-cold tile and then resuspended in additional solution A for 8-10 min of digestion at 37° C., followed by enrichment of proximal tubules using centrifugation on self-forming Percoll gradients. For Nec-1 studies in renal tubules, renal cortices were dissected in ice-cold dissection solution (DS) [HBSS with 10 mmol/L glucose, 5 mmol/L glycine, 1 mmol/L alanine, 15 mmol/L Hepes (pH 7.4); osmolality, 325 mOsmol/L] and sliced into 1-mm pieces. The fragments were transferred to collagenase solution (DS with 0.1% (wt/vol) type 2 collagenase and 96 μg/mL soybean trypsin inhibitor) and digested for 30 min at 37° C. and 61×g. After digestion, the supernatant was sieved through two nylon sieves: first 250-μm pore size and then 100-μm pore size. […]

[3] = test system: C57BL/6 mice, kidney ischemia-reperfusion injury; experiment: Kidney model of ischemia-reperfusion injury (IRI); assay type: in vivo
Description: As an initial in vivo study, the effects of Fer-1 and SRS16-86 on serum creatinine, a marker of kidney damage, were evaluated in an ischemia reperfusion injury (IRI) model of kidney failure (FIG. 21).
Organs were dissected as indicated in each experiment and infused with 4% (vol/vol) neutral-buffered formaldehyde, fixated for 48 h, dehydrated in a graded ethanol series and xylene, and finally embedded in paraffin. Stained sections were analyzed using an Axio Imager microscope (Zeiss). Kidney damage was quantified by two experienced pathologists in a double-blind manner on a scale ranging from 0 (unaffected tissue) to 10 (severe organ damage). The following parameters were chosen as indicative of morphological damage to the kidney after ischemia-reperfusion injury (IRI): brush border loss, red blood cell extravasation, tubule dilatation, tubule degeneration, tubule necrosis, and tubular cast formation. These parameters were evaluated on a scale of 0-10, which ranged from not present (0), mild (1-4), moderate (5 or 6), severe (7 or 8), to very severe (9 or 10). Each parameter was determined on at least four different animals.
Induction of kidney IRI was performed via a midline abdominal incision and a bilateral renal pedicle clamping for either 40 min (severe IRI, or “lethal-to-WT” IRI) or 50 min (ultra-severe IRI) using microaneurysm clamps (Aesculab). Throughout the surgical procedure, the body temperature was maintained between 36° C. and 37° C. by continuous monitoring using a temperature-controlled self-regulated heating system (Fine Science Tools). After removal of the clamps, reperfusion of the kidneys was confirmed visually. The abdomen was closed in two layers using standard 6-0 sutures. Sham-operated mice underwent the identical surgical procedures, except that microaneurysm clamps were not applied. To maintain fluid balance, all of the mice were supplemented with 1 mL of prewarmed PBS administered intraperitoneally directly after surgery. All mice were killed 48 h after reperfusion for each experiment. […] All ischemia-reperfusion experiments were performed in a double-blinded manner.

[4] = In vitro stability study in mouse plasma; assay type: in vitro ADME; settings: for Percent Remaining: 37° C.
Description: The assay was conducted by incubating 1 μM of test compounds with Mouse Plasma (Strain […]) for a series of incubation times (0, 15, 30, 60, 120 minutes) at various temperatures (wet ice, room temperature, or 37° C.) with 5% CO2 and shaking (130 rpm). At each time point, the samples were quenched with 200 μL of stop solution containing an internal standard and kept on ice. The samples were analysed by LC-MS/MS.

Compound: CC(C)(C)OC(=O)c1ccc(NC23CC4CC(CC(C4)C2)C3)c(/N=C\c2cncnc2)c1 [SRS16-86, tert-butyl 4-(adamantylamino)-3-(pyrimidin-5-ylmethyleneamino)benzoate]
- Elimination rate constant (k) ([1]; Mouse, Compound Conc = 0.5 μM): <0.0048
- Intrinsic Clearance (CLint) (mL/min/g liver) ([1]; Mouse, Compound Conc = 0.5 μM): <0.5* mL/min/g liver
- half-life at 0.5 μM ([1]; pH 7.4, Mouse, Compound Conc = 0.5 μM, read-out: Half life (t½)): > 1.5 h
- half-life at 0.5 μM ([1]; pH 7.4, stated in the text of Example 15, read-out: T1/2 in mouse liver microsomes): > 2 h
- ferroptosis-inhibiting ability (FACS) (NIH 3T3 cells): active compound
- ferroptosis-inhibiting ability (FACS) (HT1080 cells): active compound
- tubular necrosis [2]: prevented
- serum creatinine in IRI model of kidney failure ([3]; 2 mg/kg IP 30 minutes prior to induction of IRI): effective
- functional acute renal failure and structural organ damage after severe IRI ([3]; 40 min ischemia, 48 h after reperfusion, 2 mg/kg i.p.): protected from functional acute renal failure
- serum urea and serum creatinine in ultrasevere IRI, added to Nec-1+SfA ([3]; 50 min ischemia, Nec-1+SfA-treated mice, 2 mg/kg i.p.): reduced plasma levels of serum urea and serum creatinine
- Percent Remaining ([4]; 0 minutes): 100.0%
- Percent Remaining ([4]; 15 minutes): 82.2%
- Percent Remaining ([4]; 30 minutes): 86.5%
- Percent Remaining ([4]; 60 minutes): 83.9%
- Percent Remaining ([4]; 120 minutes): 63.9%
- half-life at 1 μM ([4]; C57BL/4, mouse, plasma, read-out: T1/2 in mouse plasma): > 2 h
